“Also recorded” adds a separate entry of the source.
Assays:
Han:SPRD rats [1] = test: Oral BHB treatment in drinking water of juvenile Han:SPRD PKD rats, post-natal weeks 3-8; assay type: in vivo, rat
Description: Han:SPRD rats, a non-orthologous model of PKD with a mutation in Anks6 were placed on a time-restricted feeding (TRF) regime wherein TRF animals had access to food for an 8-h period within their 12-h dark cycle. Animals were treated for 5 weeks from post-natal weeks 3-8. […] Additionally, TRF-treated animals had increased levels of BHB and reduced blood glucose indicative of ketosis. Oral BHB Treatment Prevents Polycystic Disease Progression in Juvenile Rats. To investigate if BHB might affect PKD progression, Han:SPRD rats were treated with BHB from post-natal weeks 3-8 in the context of ad libitum feeding with normal, high-carbohydrate chow (NC). BHB was administered as a sodium and potassium salt in the drinking water ad libitum at a dose equivalent to that recommended as a dietary supplement in BHB supplement drinks. Control cohorts received either normal water or water supplemented with the molar equivalents of salt provided in the BHB supplement (a mixture of NaCl/KCl).

Han:SPRD rats [2] = test: BHB, citrate and combined BHB-citrate treatment in drinking water of Han:SPRD PKD rats, post-natal weeks 3-8; assay type: in vivo, rat; conditions: for dose dependence of benefit on PKD progression: varying concentrations, citrate particularly at the 120 mM dosage
Description: To investigate BHB, citrate, and combined BHB and citrate effects on PKD progression, Han:SPRD rats were treated with BHB or a combination of BHB and citrate from post-natal weeks 3-8 in the context of ad libitum feeding with normal, high-carbohydrate chow (NC). In the BHB treatments, BHB was administered as a sodium and potassium salt in the drinking water ad libitum at a dose equivalent to that recommended as a dietary supplement in BHB supplement drinks. In the citrate treatments, citrate was administered as a combination of tripotassium citrate and citric acid at a (0.82/1) ratio at a dose equivalent to that recommended utilized in citrate dietary supplements. Control cohorts received either normal water or water supplemented with the molar equivalents of salt provided in the BHB or BHB-citrate supplements (a mixture of NaCl/KCl). […]

[3] = PKD rats, 5 weeks BHB in drinking water
[4] = PKD rats, 5 weeks BHB in drinking water, normal chow, vs water- and salt-treated controls

Compound	effect on body weight (Han:SPRD rats [1]; 5 weeks BHB in drinking water)	effect on wild-type kidneys and other organs (Han:SPRD rats [1]; 5 weeks BHB in drinking water)	fibrosis (Han:SPRD rats [1]; [3])	kidney function (assessed by creatinine) (Han:SPRD rats [1]; [3])	myofibroblasts (Han:SPRD rats [1]; [3])	proliferation (Han:SPRD rats [1]; [3])	2-kidney to body weight ratio (Han:SPRD rats [1]; [4])	cystic area (Han:SPRD rats [1]; [4])	kidneys of PKD animals at the gross and histological level (Han:SPRD rats [1]; after 5 weeks of treatment)	effect on body weight (Han:SPRD rats [2]; 5 weeks in drinking water)	effect on wild-type kidneys and other organs (Han:SPRD rats [2]; 5 weeks in drinking water)	2-kidney to body weight ratio (Han:SPRD rats [2]; PKD rats, 5 weeks, vs water- and salt-treated controls (FIG. 8A))	cystic area (Han:SPRD rats [2]; PKD rats, 5 weeks, vs water- and salt-treated controls (FIG. 8B))	kidneys of PKD animals at the gross and histological level (Han:SPRD rats [2]; after 5 weeks of treatment)	dose dependence of benefit on PKD progression (Han:SPRD rats [2])
CC(O)CC(=O)O (stereo not drawn) [BHB, beta-hydroxybutyric acid]	no effect	Neither wild-type kidneys nor other organs were affected	strong reduction	improved	almost complete elimination; also recorded: almost complete absence	inhibition	striking and unexpected reductions	striking and unexpected reductions	nearly indistinguishable from kidneys of wild-type animals	no effect	Neither wild-type kidneys nor other organs were affected	striking reductions	striking reductions	nearly indistinguishable from kidneys of wild-type animals	dose-dependent benefits
citrate															dose-dependent therapeutic effects
